We go through 17 molecules from patent US20230014445A1, “ALLOSTERIC CHROMENONE INHIBITORS OF PHOSPHOINOSITIDE 3-KINASE (PI3K) FOR THE TREATMENT OF DISEASE” (Petra Pharma Corporation, priority 2021, published 2023).

Some results are limits rather than exact numbers.

For test [1], the target named is T1, human full length PIK3KA H1047R mutant (p110α/p85α complex) (Homo sapiens, UniProt P42336, H1047R).
T1 construct: Recombinant, catalytically active human full length PIK3KA Wild-type and H1047R mutant were purchased; 6xHis (N); purchased EMD Millipore Sigma 14-792M
T1 sequence (P42336 whole entry H1047R): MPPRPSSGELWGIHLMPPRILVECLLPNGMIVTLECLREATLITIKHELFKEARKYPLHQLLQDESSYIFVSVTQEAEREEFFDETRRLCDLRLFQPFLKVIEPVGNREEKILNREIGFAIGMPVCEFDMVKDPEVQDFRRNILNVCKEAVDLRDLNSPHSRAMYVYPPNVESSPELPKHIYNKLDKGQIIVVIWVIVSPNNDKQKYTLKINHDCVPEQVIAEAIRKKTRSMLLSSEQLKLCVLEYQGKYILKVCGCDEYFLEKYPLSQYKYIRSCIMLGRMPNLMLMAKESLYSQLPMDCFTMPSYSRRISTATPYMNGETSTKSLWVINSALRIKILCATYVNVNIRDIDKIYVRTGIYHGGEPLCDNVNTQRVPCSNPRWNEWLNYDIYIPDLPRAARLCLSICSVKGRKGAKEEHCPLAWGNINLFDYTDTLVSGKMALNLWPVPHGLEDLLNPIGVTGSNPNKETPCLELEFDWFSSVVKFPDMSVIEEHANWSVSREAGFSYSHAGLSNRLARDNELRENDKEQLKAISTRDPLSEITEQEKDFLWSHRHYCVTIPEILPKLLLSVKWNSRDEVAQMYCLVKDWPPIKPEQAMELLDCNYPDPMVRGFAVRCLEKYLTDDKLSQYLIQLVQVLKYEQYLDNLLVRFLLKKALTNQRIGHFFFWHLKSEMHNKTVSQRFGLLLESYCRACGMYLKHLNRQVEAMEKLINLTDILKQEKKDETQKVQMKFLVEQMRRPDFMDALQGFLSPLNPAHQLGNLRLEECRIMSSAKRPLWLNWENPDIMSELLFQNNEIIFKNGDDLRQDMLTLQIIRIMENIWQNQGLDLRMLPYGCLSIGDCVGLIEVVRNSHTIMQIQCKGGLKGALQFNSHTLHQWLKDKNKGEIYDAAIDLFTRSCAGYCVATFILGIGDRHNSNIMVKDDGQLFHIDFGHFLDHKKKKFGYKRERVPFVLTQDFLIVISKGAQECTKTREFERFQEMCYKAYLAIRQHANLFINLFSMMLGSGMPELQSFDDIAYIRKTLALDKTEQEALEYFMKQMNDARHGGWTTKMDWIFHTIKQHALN
T1 sequence (P27986 whole entry partner): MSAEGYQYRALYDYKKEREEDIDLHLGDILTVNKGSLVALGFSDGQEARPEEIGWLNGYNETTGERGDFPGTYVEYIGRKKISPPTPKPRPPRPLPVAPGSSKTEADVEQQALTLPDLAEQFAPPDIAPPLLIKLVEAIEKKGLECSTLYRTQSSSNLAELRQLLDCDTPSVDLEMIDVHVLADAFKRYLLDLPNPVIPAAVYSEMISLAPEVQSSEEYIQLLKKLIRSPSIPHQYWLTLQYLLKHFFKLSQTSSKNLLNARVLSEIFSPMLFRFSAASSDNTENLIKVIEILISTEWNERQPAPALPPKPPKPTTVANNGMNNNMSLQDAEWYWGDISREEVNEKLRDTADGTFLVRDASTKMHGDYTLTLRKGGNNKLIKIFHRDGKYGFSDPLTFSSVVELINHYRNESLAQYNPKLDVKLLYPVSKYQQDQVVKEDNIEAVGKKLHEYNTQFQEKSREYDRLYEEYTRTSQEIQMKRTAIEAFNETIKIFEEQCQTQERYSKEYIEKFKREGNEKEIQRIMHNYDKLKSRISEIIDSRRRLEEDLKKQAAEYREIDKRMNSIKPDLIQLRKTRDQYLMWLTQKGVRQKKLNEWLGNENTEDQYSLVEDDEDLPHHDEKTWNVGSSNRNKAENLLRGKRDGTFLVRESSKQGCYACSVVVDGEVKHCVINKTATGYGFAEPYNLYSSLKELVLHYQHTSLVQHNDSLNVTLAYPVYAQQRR
The test is described as follows: PI3K-Alpha Kinase (PIK3CA) biochemical activity, H1047R mutant (ADP-Glo). To be noted: 20 uM ATP. From the text:
(§1) PI3K-Alpha Kinase (PIK3CA) Activity, Wild-Type and H1047R Mutant and Determining IC50 Values for Inhibitors
(§2) Recombinant, catalytically active human full length PIK3KA Wild-type and H1047R mutant were purchased as 1:1 complex of N-terminal 6×his tagged p110α (catalytic) and untagged p85α, (regulatory subunit) from EMD Millipore Sigma (cat. no. 14-602M and 14-792M, respectively). PIP2diC8 (Avanti Polar Lipids Inc., cat. no. 850185) or Soy PI (Avanti Polar Lipids Inc., cat. No. 840044P) was used as lipid substrate. PIP2diC8 or PI lyophilized powder was dissolved in milliQ water to a concentration of 1 mM just before use. 10 mM stock compounds in DMSO were serially diluted 1:3 to generate a 10-point curve and plated using an acoustic liquid handler system (Echo 550 series instrument, Labcyte). A 10× intermediate compound plate (200 uM starting compound concentration and 10% DMSO) was prepared before starting the reaction. A typical reaction mixture (50 uL) comprised 40 mM HEPES buffer, pH 7.4, 25 mM MgCl2, 0.01% v/v triton-X-100, 1% v/v DMSO, 20 mM NaCl, 1-5 nM WT or H1047R PI3K protein, 20 uM ATP, and 50 uM PIP2diC8 or Soy PI. 1% DMSO buffer alone without test compound was employed as MAX control (full activity in the absence of any inhibitor), and no enzyme control was used to determine the level of background Adenosine 5′-diphosphate (ADP) (MIN control). First, Wild-type (WT) and H1047R mutant protein in kinase buffer with all components except ATP were incubated with or without compound at 27° C. for 1 h. After the pre-incubation, the reaction was initiated by the addition of […] (20 uM final concentration). The reaction was allowed to proceed until about 10% conversion of ATP (2 uM ADP) at 27° C. After that time, 5 uL of reaction was mixed with 5 uL of ADP-Kinase Glo Reagent (ADP-Glo Kinase assay kit, Promega cat. no. V9102) supplemented with MgCl2 10 mM to stop the reaction and deplete the remaining ATP for 40 min at room temperature. Then, 10 uL of Kinase Detection Reagent (ADP-Glo Kinase assay kit, Promega cat. no. V9102) was added to simultaneously convert ADP to ATP and allow the newly synthesized ATP to be measured using a luciferase/luciferin reaction. After 30 min at room temperature the light generated was measured using a luminometer (EnVision plate reader, Perkin Elmer). Process data through Genedata-Screener tool. Relative IC50 values are determined using luminescence units by calculating percent inhibition with respect to on-plate “MIN” and “MAX” controls. Data was analyzed using a 4-parameter nonlinear logistic equation (four-parameter logistic concentration-response curve):
(§3) Y=bot+[(top−bot)/1+(x/IC50)slope]
(§4) where Y=% inhibition, X=concentration yielding y % inhibition, Bottom=minimum value of y attained by curve, Top=maximum value of y attained by curve and Slope=steepness of curve at IC50.
(§5) % Inh=[(median Max−x/median Max−median Min)]·100
(§6) IC50: concentration of compound that reduces a given response (ligand binding, enzyme response) by 50%. IC50 relative: concentration giving half the compound's maximum response.
(§7) For IC50 values shown in Table A, “A” means IC50<0.5 μM; “B” means IC50 ranging between 0.5 μM and 1.0 μM; “C” means IC50 ranging between 1 μM and 5 μM; “D” means IC50 ranging between 5 μM and 10 μM; “E” means IC50>10 μM.

In test [2] the target is T2, human full length PIK3KA Wild-type (p110α/p85α complex) (Homo sapiens, UniProt P42336).
T2 construct: Recombinant, catalytically active human full length PIK3KA Wild-type and H1047R mutant were purchased; 6xHis (N); purchased EMD Millipore Sigma 14-602M
Kind of test: PI3K-Alpha Kinase (PIK3CA) biochemical activity, wild-type (ADP-Glo). To be noted: 20 uM ATP.
From the text: as §1, §2, §3, §4, §5, §6, §7
In general terms: ADP-Glo turns the ADP formed in a reaction into a luminescent signal.

Broadly, the IC50 is the concentration at which inhibition is half-maximal. Low values mean inhibition by little substance, high ones a need for much substance. As for `COc1ncc(-c2cc(=O)c3cc(C)cc(C(C)Nc4ccccc4C(=O)O)c3o2)cn1` (single isomer, unassigned) [Example 4, 2-[1-[2-(2-Methoxypyrimidin-5-yl)-6-methyl-4-oxo-chromen-8-yl]ethylamino]benzoic acid], the 50% inhibitory concentration (IC50) in test [1] (PIP2diC8 lipid substrate) and in test [2] (PIP2diC8 lipid substrate) was less than 0.5 µM throughout.
Turning to `COc1ccnc(-c2cc(=O)c3cc(C)cc(C(C)Nc4ccccc4C(=O)O)c3o2)c1` (single isomer, unassigned) [Example 43, 2-[1-[2-(4-Methoxy-2-pyridyl)-6-methyl-4-oxo-chromen-8-yl]ethylamino]benzoic acid, Isomer 2,2,2,2-trifluoroacetic acid], the values for the IC50 in test [1] (Soy PI lipid substrate) and in test [2] (Soy PI lipid substrate) were 0.5 to 1 µM and 5 to 10 µM, respectively.
The like results for `Cc1cc(C(C)Nc2ccccc2C(=O)O)c2oc(-c3cn[nH]c3)cc(=O)c2c1` (single isomer, unassigned) [Example 51, 2-[1-[6-Methyl-4-oxo-2-(1H-pyrazol-4-yl)chromen-8-yl]ethylamino]benzoic acid, Isomer 2,2,2,2-trifluoroacetic acid] were, in that order, less than 0.5 µM and 1 to 5 µM.
The like results for `COc1cccc(-n2cc(-c3cc(=O)c4cc(C)cc(C(C)Nc5ccccc5C(=O)O)c4o3)cn2)c1` (single isomer, unassigned) [Example 53, 2-[1-[2-[1-(3-Methoxyphenyl)pyrazol-4-yl]-6-methyl-4-oxo-chromen-8-yl]ethylamino]benzoic acid, Isomer 2,2,2,2-trifluoroacetic acid] were, in that order, less than 0.5 µM and 1 to 5 µM.
For `Cc1cc(C(C)Nc2ccccc2C(=O)O)c2oc(-c3cnn(-c4cccc(C#N)c4)c3)cc(=O)c2c1` (single isomer, unassigned) [Example 54, 2-[1-[2-[1-(3-Cyanophenyl)pyrazol-4-yl]-6-methyl-4-oxo-chromen-8-yl]ethylamino]benzoic acid, Isomer 2,2,2,2-trifluoroacetic acid], in that order: less than 0.5 µM and 1 to 5 µM.
As for `Cc1cc(C(C)Nc2ccccc2C(=O)O)c2oc(-n3nccn3)cc(=O)c2c1` (single isomer, unassigned) [Example 57, 2-[1-[6-Methyl-4-oxo-2-(triazol-2-yl)chromen-8-yl]ethylamino]benzoic acid, Isomer 2,2,2,2-trifluoroacetic acid], the concentration for half-maximal inhibition (IC50) was less than 0.5 µM in test [1] (Soy PI lipid substrate) and more than 10 µM in test [2] (Soy PI lipid substrate).
The like results for `Cc1cc(C(C)Nc2ccccc2C(=O)O)c2oc(-n3cccn3)cc(=O)c2c1` (single isomer, unassigned) [Example 58, 2-[1-(6-Methyl-4-oxo-2-pyrazol-1-yl-chromen-8-yl)ethylamino]benzoic acid, Isomer 2,2,2,2-trifluoroacetic acid] were, in that order, less than 0.5 µM and 5 to 10 µM.
For the molecule `Cc1cc(C(C)Nc2ccccc2C(=O)O)c2oc(-n3ccnc3)cc(=O)c2c1` (single isomer, unassigned) [Example 59, 2-[1-(2-Imidazol-1-yl-6-methyl-4-oxo-chromen-8-yl)ethylamino]benzoic acid, Isomer 2,2,2,2-trifluoroacetic acid], the half-maximal inhibitory concentration (IC50) in test [1] (PIP2diC8 lipid substrate) is less than 0.5 µM; in test [2] (PIP2diC8 lipid substrate) it was 1 to 5 µM.
`Cc1cc(C(C)Nc2ccccc2C(=O)O)c2oc(-c3cnn(-c4cccnc4)c3)c(C)c(=O)c2c1` (single isomer, unassigned) [Example 63, 2-[1-[3,6-Dimethyl-4-oxo-2-[1-(3-pyridyl)pyrazol-4-yl]chromen-8-yl]ethylamino]benzoic acid, Isomer 1,2,2,2-trifluoroacetic acid]: the IC50 in test [1] (Soy PI lipid substrate) was less than 0.5 µM; in test [2] (Soy PI lipid substrate) it was 1 to 5 µM.
The like results for `Cc1cc(C(C)Nc2ccccc2C(=O)O)c2oc(-c3cnn(-c4ccc(C#N)cc4)c3)cc(=O)c2c1` (single isomer, unassigned) [Example 64, 2-[1-2-[1-(4-Cyanophenyl)pyrazol-4-yl]-6-methyl-4-oxo-chromen-8-yl]ethylamino]benzoic acid, Isomer 2,2,2,2-trifluoroacetic acid] were, in that order, less than 0.5 µM and 1 to 5 µM.
For `COc1cccc(-n2cc(-c3oc4c(C(C)Nc5ccccc5C(=O)O)cc(C)cc4c(=O)c3C)cn2)c1` (single isomer, unassigned) [Example 66, 2-[1-2-[1-(3-Methoxyphenyl)pyrazol-4-yl]-3,6-dimethyl-4-oxo-chromen-8-yl]ethylamino]benzoic acid, Isomer 1,2,2,2-trifluoroacetic acid], the IC50 in test [1] (Soy PI lipid substrate) was less than 0.5 µM; in test [2] (Soy PI lipid substrate) it was 0.5 to 1 µM.
The like results for `Cc1cc(C(C)Nc2ccccc2C(=O)O)c2oc(-c3ccccn3)c(C(F)(F)F)c(=O)c2c1` (single isomer, unassigned) [Example 67, 2-[1-[6-Methyl-4-oxo-2-(2-pyridyl)-3-(trifluoromethyl)chromen-8-yl]ethylamino]benzoic acid, Isomer 1,2,2,2-trifluoroacetic acid] were, in that order, less than 0.5 µM and 1 to 5 µM.
In the case of `Cc1c(-c2ccccn2)oc2c(C(C)Nc3ccccc3C(=O)O)cc(F)cc2c1=O` (single isomer, unassigned) [Example 68, 2-[1-[6-Fluoro-3-methyl-4-oxo-2-(2-pyridyl)chromen-8-yl]ethylamino]benzoic acid, Isomer 1,2,2,2-trifluoroacetic acid], the IC50 was less than 0.5 µM in test [1] (Soy PI lipid substrate) and 5 to 10 µM in test [2] (Soy PI lipid substrate).
In the case of `COc1ccc(-n2cc(-c3oc4c(C(C)Nc5ccccc5C(=O)O)cc(C)cc4c(=O)c3C)cn2)cc1` (single isomer, unassigned) [Example 69, 2-[1-[2-[1-(4-Methoxyphenyl)pyrazol-4-yl]-3,6-dimethyl-4-oxo-chromen-8-yl]ethylamino]benzoic acid, Isomer 1,2,2,2-trifluoroacetic acid], the 50% inhibitory concentration (IC50) in test [1] (Soy PI lipid substrate) was less than 0.5 µM; in test [2] (Soy PI lipid substrate) it was 0.5 to 1 µM.
As for `Cc1cc(C(C)Nc2ccccc2C(=O)O)c2oc(-c3cccc(C(F)F)n3)c(C)c(=O)c2c1` (single isomer, unassigned) [Example 77, 2-[1-[2-[6-(Difluoromethyl)-2-pyridyl]-3,6-dimethyl-4-oxo-chromen-8-yl]ethylamino]benzoic acid, Isomer 1,2,2,2-trifluoroacetic acid], the concentration for half-maximal inhibition (IC50) in test [1] (Soy PI lipid substrate) was less than 0.5 µM; in test [2] (Soy PI lipid substrate), 0.5 to 1 µM.
For `Cc1cc(C(C)Nc2ccccc2C(=O)O)c2oc(-c3cnn(-c4ccc(C(F)(F)F)cc4)c3)cc(=O)c2c1` (single isomer, unassigned) [Example 87, 2-[1-[6-Methyl-4-oxo-2-[1-[4-(trifluoromethyl)phenyl]pyrazol-4-yl]chromen-8-yl]ethylamino]benzoic acid, Isomer 2,2,2,2-trifluoroacetic acid], in that order: less than 0.5 µM and 5 to 10 µM.
Turning to `Cc1cc(C(C)Nc2ccccc2C(=O)O)c2oc(-c3cnn(-c4ccc(S(C)(=O)=O)cc4)c3)cc(=O)c2c1` (single isomer, unassigned) [Example 88, 2-[1-[6-Methyl-2-[1-(4-methylsulfonylphenyl)pyrazol-4-yl]-4-oxo-chromen-8-yl]ethylamino]benzoic acid, Isomer 2,2,2,2-trifluoroacetic acid], the values for the IC50 in test [1] (Soy PI lipid substrate) and in test [2] (Soy PI lipid substrate) were less than 0.5 µM and 1 to 5 µM, respectively.
